Columns and labels:
[1] = system: Tyrosine-protein kinase ABL1 (Homo sapiens), P00519 [F317I]; settings: Compound concentration 1000.0 nM
[2] = system: ALK tyrosine kinase receptor (Homo sapiens), Q9UM73 [L1196M]; settings: Compound concentration 1000.0 nM
[3] = target: Mitogen-activated protein kinase kinase kinase 6 (Homo sapiens) (UniProt O95382); settings: Compound concentration 1000.0 nM
[4] = target: Calcium/calmodulin-dependent protein kinase type II subunit beta (Homo sapiens) (UniProt Q13554); settings: Compound concentration 1000.0 nM
[5] = target: Cyclin-dependent kinase 3 (Homo sapiens) (UniProt Q00526); settings: Compound concentration 1000.0 nM
[6] = target: Cyclin-dependent kinase 5 (Homo sapiens) (UniProt Q00535); settings: Compound concentration 1000.0 nM
[7] = target: Macrophage colony-stimulating factor 1 receptor (Homo sapiens) (UniProt P07333); settings: Compound concentration 1000.0 nM
[8] = target: Casein kinase I isoform delta (Homo sapiens) (UniProt P48730); settings: Compound concentration 1000.0 nM
[9] = target: Ephrin type-A receptor 3 (Homo sapiens) (UniProt P29320); settings: Compound concentration 1000.0 nM
[10] = target: Mitogen-activated protein kinase 7 (Homo sapiens) (UniProt Q13164); settings: Compound concentration 1000.0 nM
[11] = target: Focal adhesion kinase 1 (Homo sapiens) (UniProt Q05397); settings: Compound concentration 1000.0 nM
[12] = system: Fibroblast growth factor receptor 3 (Homo sapiens), P22607 [G697C]; settings: Compound concentration 1000.0 nM
[13] = target: Tyrosine-protein kinase Fgr (Homo sapiens) (UniProt P09769); settings: Compound concentration 1000.0 nM
[14] = system: Receptor-type tyrosine-protein kinase FLT3 (Homo sapiens), P36888 [D835Y]; settings: Compound concentration 1000.0 nM
[15] = target: Homeodomain-interacting protein kinase 2 (Homo sapiens) (UniProt Q9H2X6); settings: Compound concentration 1000.0 nM
[16] = target: Hormonally up-regulated neu tumor-associated kinase (Homo sapiens) (UniProt P57058); settings: Compound concentration 1000.0 nM
[17] = target: Inhibitor of nuclear factor kappa-B kinase subunit alpha (Homo sapiens) (UniProt O15111); settings: Compound concentration 1000.0 nM
[18] = system: Mast/stem cell growth factor receptor Kit (Homo sapiens), P10721 [D816V]; settings: Compound concentration 1000.0 nM
[19] = target: Mast/stem cell growth factor receptor Kit (Homo sapiens) (UniProt P10721); settings: Compound concentration 1000.0 nM
[20] = target: Serine/threonine-protein kinase 10 (Homo sapiens) (UniProt O94804); settings: Compound concentration 1000.0 nM
[21] = target: MAP kinase-activated protein kinase 2 (Homo sapiens) (UniProt P49137); settings: Compound concentration 1000.0 nM
[22] = target: Dual specificity mitogen-activated protein kinase kinase 5 (Homo sapiens) (UniProt Q13163); settings: Compound concentration 1000.0 nM
[23] = target: Dual specificity mitogen-activated protein kinase kinase 7 (Homo sapiens) (UniProt O14733); settings: Compound concentration 1000.0 nM
[24] = target: Serine/threonine-protein kinase MRCK alpha (Homo sapiens) (UniProt Q5VT25); settings: Compound concentration 1000.0 nM
[25] = target: Macrophage-stimulating protein receptor (Homo sapiens) (UniProt Q04912); settings: Compound concentration 1000.0 nM
[26] = target: Serine/threonine-protein kinase 24 (Homo sapiens) (UniProt Q9Y6E0); settings: Compound concentration 1000.0 nM
[27] = target: Serine/threonine-protein kinase NLK (Homo sapiens) (UniProt Q9UBE8); settings: Compound concentration 1000.0 nM
[28] = target: Cyclin-dependent kinase 17 (Homo sapiens) (UniProt Q00537); settings: Compound concentration 1000.0 nM
[29] = target: Platelet-derived growth factor receptor beta (Homo sapiens) (UniProt P09619); settings: Compound concentration 1000.0 nM
[30] = target: Cyclin-dependent kinase 15 (Homo sapiens) (UniProt Q96Q40); settings: Compound concentration 1000.0 nM
[31] = target: Serine/threonine-protein kinase pim-1 (Homo sapiens) (UniProt P11309); settings: Compound concentration 1000.0 nM
[32] = target: Membrane-associated tyrosine- and threonine-specific cdc2-inhibitory kinase (Homo sapiens) (UniProt Q99640); settings: Compound concentration 1000.0 nM
[33] = target: Ribosomal protein S6 kinase alpha-5 (Homo sapiens) (UniProt O75582); settings: Compound concentration 1000.0 nM
[34] = target: Ribosomal protein S6 kinase alpha-2 (Homo sapiens) (UniProt Q15349); settings: Compound concentration 1000.0 nM
[35] = target: Ribosomal protein S6 kinase alpha-2 (Homo sapiens) (UniProt Q15349); settings: Compound concentration 1000.0 nM; remark: listed apart in the source
[36] = target: Ribosomal protein S6 kinase alpha-6 (Homo sapiens) (UniProt Q9UK32); settings: Compound concentration 1000.0 nM
[37] = target: Serine/threonine-protein kinase Sgk1 (Homo sapiens) (UniProt O00141); settings: Compound concentration 1000.0 nM
[38] = target: Tyrosine-protein kinase Srms (Homo sapiens) (UniProt Q9H3Y6); settings: Compound concentration 1000.0 nM
[39] = target: Dual specificity testis-specific protein kinase 1 (Homo sapiens) (UniProt Q15569); settings: Compound concentration 1000.0 nM
[40] = target: Serine/threonine-protein kinase tousled-like 2 (Homo sapiens) (UniProt Q86UE8); settings: Compound concentration 1000.0 nM
[41] = target: Testis-specific serine/threonine-protein kinase 1 (Homo sapiens) (UniProt Q9BXA7); settings: Compound concentration 1000.0 nM
[42] = target: Serine/threonine-protein kinase ULK3 (Homo sapiens) (UniProt Q6PHR2); settings: Compound concentration 1000.0 nM
[43] = target: Serine/threonine-protein kinase WNK2 (Homo sapiens) (UniProt Q9Y3S1); settings: Compound concentration 1000.0 nM
[44] = target: Serine/threonine-protein kinase 32A (Homo sapiens) (UniProt Q8WU08); settings: Compound concentration 1000.0 nM
[45] = target: D(4) dopamine receptor (Homo sapiens) (UniProt P21917); settings: Compound concentration 10.0 uM

Sequence of Ribosomal protein S6 kinase alpha-2 (Homo sapiens) (Q15349 whole entry): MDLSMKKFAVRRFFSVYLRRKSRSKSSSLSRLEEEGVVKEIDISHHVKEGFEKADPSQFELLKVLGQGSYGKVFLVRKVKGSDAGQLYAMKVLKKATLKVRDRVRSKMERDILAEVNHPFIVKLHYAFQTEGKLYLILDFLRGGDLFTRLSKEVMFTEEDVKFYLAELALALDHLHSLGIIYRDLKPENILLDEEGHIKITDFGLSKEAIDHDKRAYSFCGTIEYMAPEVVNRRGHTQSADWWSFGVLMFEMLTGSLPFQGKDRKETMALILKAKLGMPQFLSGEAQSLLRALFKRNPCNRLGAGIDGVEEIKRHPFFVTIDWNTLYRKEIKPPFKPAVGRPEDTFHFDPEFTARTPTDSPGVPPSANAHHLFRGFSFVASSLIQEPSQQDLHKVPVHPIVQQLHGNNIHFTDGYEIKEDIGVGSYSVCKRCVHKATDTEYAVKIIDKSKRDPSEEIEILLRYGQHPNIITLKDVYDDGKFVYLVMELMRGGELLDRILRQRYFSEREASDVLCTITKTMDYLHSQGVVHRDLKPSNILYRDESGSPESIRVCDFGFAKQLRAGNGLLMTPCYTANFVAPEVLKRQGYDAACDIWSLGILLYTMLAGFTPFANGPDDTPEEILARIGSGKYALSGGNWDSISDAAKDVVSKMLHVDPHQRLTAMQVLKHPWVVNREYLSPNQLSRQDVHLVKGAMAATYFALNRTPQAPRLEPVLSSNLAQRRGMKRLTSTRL
Sequence of Macrophage colony-stimulating factor 1 receptor (Homo sapiens) (P07333 whole entry, canonical isoform): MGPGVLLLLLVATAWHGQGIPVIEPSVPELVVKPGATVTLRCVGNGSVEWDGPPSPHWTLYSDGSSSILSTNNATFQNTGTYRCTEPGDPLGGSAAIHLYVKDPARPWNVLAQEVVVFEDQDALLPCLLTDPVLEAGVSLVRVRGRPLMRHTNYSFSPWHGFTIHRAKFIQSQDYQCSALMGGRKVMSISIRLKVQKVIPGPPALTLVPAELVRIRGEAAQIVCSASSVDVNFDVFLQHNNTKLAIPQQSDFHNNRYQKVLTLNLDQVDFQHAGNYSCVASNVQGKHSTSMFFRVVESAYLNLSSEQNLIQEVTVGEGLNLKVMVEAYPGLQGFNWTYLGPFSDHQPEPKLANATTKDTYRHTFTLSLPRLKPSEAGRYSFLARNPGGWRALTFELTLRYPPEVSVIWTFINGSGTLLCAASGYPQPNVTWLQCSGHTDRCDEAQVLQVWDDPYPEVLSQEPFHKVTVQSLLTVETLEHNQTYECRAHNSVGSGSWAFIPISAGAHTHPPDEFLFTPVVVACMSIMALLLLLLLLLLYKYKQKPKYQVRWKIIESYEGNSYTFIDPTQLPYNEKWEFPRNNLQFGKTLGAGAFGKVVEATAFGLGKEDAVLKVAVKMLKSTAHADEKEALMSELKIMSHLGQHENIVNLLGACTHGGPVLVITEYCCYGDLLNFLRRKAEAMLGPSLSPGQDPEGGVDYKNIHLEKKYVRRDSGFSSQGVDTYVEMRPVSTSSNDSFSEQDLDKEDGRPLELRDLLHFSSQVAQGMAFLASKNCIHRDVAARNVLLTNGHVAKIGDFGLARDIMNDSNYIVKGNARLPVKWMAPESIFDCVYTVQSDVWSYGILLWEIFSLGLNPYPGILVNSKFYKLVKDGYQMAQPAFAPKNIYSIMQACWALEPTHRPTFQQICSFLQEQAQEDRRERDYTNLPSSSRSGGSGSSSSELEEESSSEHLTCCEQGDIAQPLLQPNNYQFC
Sequence of Homeodomain-interacting protein kinase 2 (Homo sapiens) (Q9H2X6 whole entry, looked up): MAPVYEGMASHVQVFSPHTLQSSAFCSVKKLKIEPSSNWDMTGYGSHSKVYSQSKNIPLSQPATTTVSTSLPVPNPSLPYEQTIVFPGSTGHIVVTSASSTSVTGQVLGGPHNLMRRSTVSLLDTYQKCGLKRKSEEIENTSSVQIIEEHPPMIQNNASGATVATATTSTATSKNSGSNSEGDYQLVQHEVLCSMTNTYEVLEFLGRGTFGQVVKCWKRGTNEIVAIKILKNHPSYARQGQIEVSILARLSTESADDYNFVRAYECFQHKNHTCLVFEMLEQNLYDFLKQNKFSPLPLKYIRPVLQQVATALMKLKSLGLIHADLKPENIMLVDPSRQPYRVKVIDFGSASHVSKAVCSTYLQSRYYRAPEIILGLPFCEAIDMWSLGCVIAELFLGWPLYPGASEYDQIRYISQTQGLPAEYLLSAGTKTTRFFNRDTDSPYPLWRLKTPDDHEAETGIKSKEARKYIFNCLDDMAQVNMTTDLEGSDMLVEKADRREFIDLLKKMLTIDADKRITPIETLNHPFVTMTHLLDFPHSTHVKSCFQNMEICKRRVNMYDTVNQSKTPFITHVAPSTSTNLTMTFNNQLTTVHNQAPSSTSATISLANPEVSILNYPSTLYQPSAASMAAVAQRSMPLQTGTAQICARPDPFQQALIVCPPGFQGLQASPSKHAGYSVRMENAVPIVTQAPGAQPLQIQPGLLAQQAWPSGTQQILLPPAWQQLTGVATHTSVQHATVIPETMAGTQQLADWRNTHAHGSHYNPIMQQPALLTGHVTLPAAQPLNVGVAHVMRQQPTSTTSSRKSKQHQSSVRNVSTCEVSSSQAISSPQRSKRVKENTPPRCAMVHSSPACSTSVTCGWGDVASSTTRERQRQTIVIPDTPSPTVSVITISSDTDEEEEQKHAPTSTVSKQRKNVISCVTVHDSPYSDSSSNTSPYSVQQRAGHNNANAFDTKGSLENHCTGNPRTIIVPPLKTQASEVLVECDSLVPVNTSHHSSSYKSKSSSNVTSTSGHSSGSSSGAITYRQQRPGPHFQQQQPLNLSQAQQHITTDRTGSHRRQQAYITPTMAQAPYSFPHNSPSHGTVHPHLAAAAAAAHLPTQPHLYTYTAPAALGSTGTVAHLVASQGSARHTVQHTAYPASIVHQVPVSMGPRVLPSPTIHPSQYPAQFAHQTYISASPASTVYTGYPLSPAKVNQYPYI
Sequence of Mast/stem cell growth factor receptor Kit (Homo sapiens), P10721 [D816V] (P10721 whole entry D816V): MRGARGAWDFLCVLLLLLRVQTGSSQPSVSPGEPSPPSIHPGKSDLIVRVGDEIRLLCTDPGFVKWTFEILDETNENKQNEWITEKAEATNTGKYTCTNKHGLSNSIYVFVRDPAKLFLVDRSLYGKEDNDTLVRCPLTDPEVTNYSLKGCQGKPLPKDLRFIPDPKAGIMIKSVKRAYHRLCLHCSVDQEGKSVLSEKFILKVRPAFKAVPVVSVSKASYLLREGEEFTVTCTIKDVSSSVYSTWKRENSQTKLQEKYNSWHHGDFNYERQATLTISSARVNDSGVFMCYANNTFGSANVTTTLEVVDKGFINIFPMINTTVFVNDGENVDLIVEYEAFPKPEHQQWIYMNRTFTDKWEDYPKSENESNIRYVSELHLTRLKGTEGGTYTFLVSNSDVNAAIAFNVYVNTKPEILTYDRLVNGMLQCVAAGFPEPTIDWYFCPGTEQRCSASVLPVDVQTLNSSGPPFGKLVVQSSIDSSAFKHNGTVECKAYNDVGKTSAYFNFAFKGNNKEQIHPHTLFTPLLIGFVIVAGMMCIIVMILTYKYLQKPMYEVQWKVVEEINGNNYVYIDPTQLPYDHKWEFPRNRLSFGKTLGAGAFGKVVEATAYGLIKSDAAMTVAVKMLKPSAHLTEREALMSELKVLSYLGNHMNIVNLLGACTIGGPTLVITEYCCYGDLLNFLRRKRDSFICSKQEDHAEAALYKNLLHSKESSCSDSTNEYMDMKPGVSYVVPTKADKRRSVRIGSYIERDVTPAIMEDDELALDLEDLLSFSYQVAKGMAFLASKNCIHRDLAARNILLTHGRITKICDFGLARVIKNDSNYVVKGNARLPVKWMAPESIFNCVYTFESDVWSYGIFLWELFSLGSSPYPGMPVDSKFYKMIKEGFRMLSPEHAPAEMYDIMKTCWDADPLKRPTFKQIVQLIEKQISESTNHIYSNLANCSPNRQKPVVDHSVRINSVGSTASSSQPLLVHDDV
Sequence of Dual specificity mitogen-activated protein kinase kinase 7 (Homo sapiens) (O14733 whole entry): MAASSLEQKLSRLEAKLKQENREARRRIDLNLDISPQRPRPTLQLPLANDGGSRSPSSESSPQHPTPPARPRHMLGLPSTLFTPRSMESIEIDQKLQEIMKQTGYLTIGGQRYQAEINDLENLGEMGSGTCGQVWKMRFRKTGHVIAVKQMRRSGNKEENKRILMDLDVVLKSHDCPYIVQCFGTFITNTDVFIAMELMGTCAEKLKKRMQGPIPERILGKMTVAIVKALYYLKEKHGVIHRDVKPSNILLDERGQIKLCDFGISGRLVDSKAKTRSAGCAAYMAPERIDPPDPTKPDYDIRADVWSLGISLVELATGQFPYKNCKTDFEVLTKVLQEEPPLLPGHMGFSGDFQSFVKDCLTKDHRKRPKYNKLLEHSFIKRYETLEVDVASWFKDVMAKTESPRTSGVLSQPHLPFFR
Sequence of Fibroblast growth factor receptor 3 (Homo sapiens), P22607 [G697C] (P22607 whole entry G697C): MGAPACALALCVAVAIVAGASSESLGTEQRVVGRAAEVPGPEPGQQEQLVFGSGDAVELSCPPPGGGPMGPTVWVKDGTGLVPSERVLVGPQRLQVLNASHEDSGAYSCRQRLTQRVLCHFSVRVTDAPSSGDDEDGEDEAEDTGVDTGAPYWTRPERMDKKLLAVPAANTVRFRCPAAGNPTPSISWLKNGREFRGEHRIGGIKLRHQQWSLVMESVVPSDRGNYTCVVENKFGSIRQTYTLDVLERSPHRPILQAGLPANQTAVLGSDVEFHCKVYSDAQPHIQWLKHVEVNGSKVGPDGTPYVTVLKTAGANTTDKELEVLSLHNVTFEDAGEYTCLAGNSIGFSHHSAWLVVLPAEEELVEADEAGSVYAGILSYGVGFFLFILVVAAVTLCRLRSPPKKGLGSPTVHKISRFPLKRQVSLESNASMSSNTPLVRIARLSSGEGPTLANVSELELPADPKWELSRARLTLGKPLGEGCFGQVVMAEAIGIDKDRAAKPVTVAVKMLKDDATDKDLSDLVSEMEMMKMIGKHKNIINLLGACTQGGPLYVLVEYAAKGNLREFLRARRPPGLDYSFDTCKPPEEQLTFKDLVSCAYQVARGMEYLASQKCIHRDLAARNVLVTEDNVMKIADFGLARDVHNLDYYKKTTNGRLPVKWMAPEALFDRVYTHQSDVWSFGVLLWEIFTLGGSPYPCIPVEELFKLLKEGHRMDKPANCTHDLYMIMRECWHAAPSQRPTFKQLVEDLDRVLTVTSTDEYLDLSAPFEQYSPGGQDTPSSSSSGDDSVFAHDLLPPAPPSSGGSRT

Cn1nc(C(F)(F)F)cc1-c1cnc(N2CCc3cc(S(=O)(=O)Nc4c(F)cc(Cl)cc4F)cc(N4CCCC4=O)c32)nc1 [TP-020]
inactive: residual activity [1] 71% | residual activity [2] 78% | residual activity [3] 67% | residual activity [4] 92% | residual activity [5] 91% | residual activity [6] 100% | residual activity [7] 82% | residual activity [8] 94% | residual activity [9] 94% | residual activity [10] 100% | residual activity [11] 98% | residual activity [12] 100% | residual activity [13] 90% | residual activity [14] 100% | residual activity [15] 74% | residual activity [16] 68% | residual activity [17] 99% | residual activity [18] 100% | residual activity [19] 91% | residual activity [20] 94% | residual activity [21] 73% | residual activity [22] 83% | residual activity [23] 98% | residual activity [24] 100% | residual activity [25] 100% | residual activity [26] 90% | residual activity [27] 98% | residual activity [28] 100% | residual activity [29] 90% | residual activity [30] 100% | residual activity [31] 97% | residual activity [32] 93% | residual activity [33] 97% | residual activity [34] 100% | residual activity [35] 77% | residual activity [36] 85% | residual activity [37] 100% | residual activity [38] 100% | residual activity [39] 86% | residual activity [40] 94% | residual activity [41] 100% | residual activity [42] 100% | residual activity [43] 81% | residual activity [44] 78% | inhibition [45] 9.09%

Nc1cnc(N2CCc3cc(S(=O)(=O)Nc4c(F)cc(Cl)cc4F)cc(N4CCCC4=O)c32)nc1
inactive: residual activity [1] 100% | residual activity [2] 81% | residual activity [3] 75% | residual activity [4] 100% | residual activity [5] 100% | residual activity [6] 100% | residual activity [7] 100% | residual activity [8] 98% | residual activity [9] 78% | residual activity [10] 100% | residual activity [11] 99% | residual activity [12] 89% | residual activity [13] 100% | residual activity [14] 100% | residual activity [15] 100% | residual activity [16] 99% | residual activity [17] 100% | residual activity [18] 100% | residual activity [19] 100% | residual activity [20] 100% | residual activity [21] 100% | residual activity [22] 84% | residual activity [23] 100% | residual activity [24] 100% | residual activity [25] 98% | residual activity [26] 100% | residual activity [27] 100% | residual activity [28] 100% | residual activity [29] 100% | residual activity [30] 80% | residual activity [31] 88% | residual activity [32] 99% | residual activity [33] 100% | residual activity [34] 88% | residual activity [35] 100% | residual activity [36] 86% | residual activity [37] 100% | residual activity [38] 88% | residual activity [39] 100% | residual activity [40] 79% | residual activity [41] 100% | residual activity [42] 100% | residual activity [43] 100% | residual activity [44] 80% | inhibition [45] -5.02%
